Drawing on PubChem BioAssay (NCI), this text covers GI50 and TGI for nine compounds.

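Each compound was tested at five concentrations against cells in 96-well plates for 48 hours. The concentration for 50% growth inhibition is given as GI50. TGI: total growth inhibition.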

Assay in all cases: NCI-60 cell line screen, 48 h
For experiment [1], the system named is KM12 colon.
Experiment [2] concerns SW-620 colon.
The test system of experiment [3] is UO-31 renal.
For experiment [4], the system named is K-562 leukemia.
The subject of experiment [5] is CAKI-1 renal.
Experiment [6] concerns LOX IMVI melanoma.
In experiment [7] the test system is M14 melanoma.
The test system of experiment [8] is HOP-92 NSCLC.
The test system of experiment [9] is SR leukemia.
Experiment [10] has as its system RXF 393 renal.

Turning to `COc1ccc(/C=C(/C(=O)N2CCN(c3ccc(C)cc3)CC2)c2cc(OC)c(OC)c(OC)c2)cc1N`, the GI50 is 0.314 µM in experiment [1]; 0.407 µM in experiment [2]; 0.242 µM in experiment [3]; 0.222 µM in experiment [4]; 0.465 µM in [5]; 0.221 µM in experiment [6]. Further, the GI50 in [7] is 0.247 µM; in experiment [8], 0.205 µM; in experiment [9], 0.238 µM; in experiment [10], 0.271 µM. In addition, the TGI in experiment [1] is greater than 100 µM; in [2], greater than 100 µM; in experiment [3], greater than 35.3 µM; in experiment [4], greater than 100 µM; in experiment [5] it was greater than 100 µM; in experiment [6], greater than 100 µM. Further, the TGI was 2.48 µM in experiment [7], greater than 100 µM in experiment [8], greater than 100 µM in experiment [9] and greater than 100 µM in experiment [10].

Take `C=C(c1ccccc1)[C@@]1(O)CCCC[C@H]1NC(c1ccccc1)c1ccccc1`: the TGI in experiment [1] is 30.9 µM; in experiment [2] it was 32.8 µM; in [3], 27.6 µM; in experiment [4], 29.1 µM; in experiment [5], 21.4 µM; in experiment [6] it was 21.9 µM. Moreover, the TGI was determined as 27.6 µM in experiment [7], 26.1 µM in experiment [8], 6.98 µM in experiment [9] and 22.7 µM in [10].

On to `O=C1c2cccc3c([N+](=O)[O-])ccc(c23)C(=O)N1CCCCl`, for which the GI50 was 6.11 µM in experiment [1]; 2.08 µM in experiment [2]; greater than 10 µM in experiment [3]; 3.04 µM in experiment [4]; greater than 10 µM in experiment [5]; 1.47 µM in experiment [6]. Besides, the GI50 in experiment [7] was 5.85 µM; in experiment [8] it was greater than 10 µM; in experiment [9] it was 0.334 µM; in experiment [10], 3.85 µM. Moreover, the TGI in [1] is greater than 10 µM; in [2], 5.95 µM; in [3], greater than 10 µM; in [4], greater than 10 µM; in experiment [5] it was greater than 10 µM; in experiment [6], 2.96 µM. Moreover, the TGI in experiment [7], in [8], in [9] and in experiment [10] was greater than 10 µM in each case.

In the case of `COc1ccc2c(c1)[n+]([O-])c(/C(C)=N/NC(N)=S)c(C)[n+]2[O-]`, the TGI in experiment [1], in experiment [2], in experiment [3], in experiment [4], in experiment [5] and in experiment [6] was greater than 100 µM throughout. Also, the TGI in experiment [7] is greater than 100 µM; in [8], greater than 100 µM; in experiment [9] it was 61.5 µM; in experiment [10] it was greater than 100 µM.

Take `COc1cccc(-c2cc(C(=O)Nc3ccc(Cl)cc3)nc(N)n2)c1`: the TGI in [1], in [2], in experiment [3], in experiment [4], in [5] and in experiment [6] was greater than 100 µM each time. Moreover, the TGI in experiment [7], in experiment [8], in experiment [9] and in [10] was greater than 100 µM throughout.

Turning to `CS(=O)(=O)c1nccc(-c2c(-c3cccc(OCc4ccccc4)c3)nc3sccn23)n1`, the GI50 in experiment [1] was 4.64 µM; in experiment [2], 4.67 µM; in experiment [3], 21.2 µM; in experiment [4], 5.29 µM; in experiment [5], 4.58 µM; in experiment [6], 5.13 µM. Also, the GI50 in [7] was 13.9 µM; in [8] it was 6.38 µM; in experiment [9] it was 4.49 µM; in [10] it was 15.3 µM. Further, the TGI in experiment [1] was 9.98 µM; in experiment [2], greater than 100 µM; in [3], 78 µM; in experiment [4] it was greater than 100 µM; in experiment [5], greater than 100 µM; in experiment [6], greater than 100 µM. Also, the TGI in experiment [7], in [8], in experiment [9] and in experiment [10] was greater than 100 µM in each case.

In the case of `CCCCCCN(CCCCCC)C1=CC(=O)C(=O)c2ccccc21`, the TGI in experiment [1] is 31.5 µM; in [2] it was 27.3 µM; in experiment [3] it was 26.2 µM; in experiment [4], 46.4 µM; in experiment [5] it was 28.6 µM; in experiment [6] it was 22.1 µM. For the same compound, the TGI in [7] is 32.4 µM; in experiment [8] it was 28.7 µM; in experiment [9] it was 63.3 µM; in experiment [10] it was 40.5 µM.

For `COc1ccc(C(=O)OC2C(OC3C(O)COC(O[C@H]4C[C@H]5[C@@H]6CC=C7C[C@@H](O)CC[C@]7(C)[C@H]6CC[C@]5(C)[C@H]4[C@H](C)C(=O)CCC(C)C)C3OC(=O)C(C)C)OCC(O)C2O)cc1` (stereo not given in full), the GI50 in experiment [1] is 0.0707 µM; in experiment [2], 0.0125 µM; in experiment [3], 0.0115 µM; in experiment [4] it was 0.0127 µM; in [5], 0.0172 µM; in experiment [6] it was 0.0107 µM. For the same compound, the GI50 in experiment [7] was 0.00812 µM; in experiment [8], 0.0208 µM; in experiment [9], 0.0121 µM; in [10] it was less than 0.00275 µM. For the same compound, the TGI in [1] is 4.77 µM; in experiment [2], 0.389 µM; in experiment [3] it was 0.067 µM; in [4], 0.516 µM; in [5], 1.64 µM; in experiment [6], 0.0488 µM. Besides, the TGI in experiment [7] came out at 0.0389 µM; in [8] it was 3.1 µM; in experiment [9], 3.34 µM; in experiment [10] it was 0.0158 µM.

On to `Cc1ccccc1NC(=O)N/C(N)=N/c1nc(C)c(C)s1`, for which the GI50 in experiment [1] was 0.206 µM; in [2], 0.163 µM; in experiment [3] it was 1.1 µM; in [4], 0.0429 µM; in experiment [5] it was 0.197 µM; in experiment [6], 0.444 µM. For the same compound, the GI50 in experiment [7] is 0.121 µM; in experiment [8], 30 µM; in experiment [9], 0.0438 µM; in experiment [10], 0.187 µM. Further, the TGI in experiment [1] was greater than 100 µM; in [2], greater than 100 µM; in experiment [3], greater than 100 µM; in experiment [4] it was greater than 100 µM; in experiment [5], 97.1 µM; in [6] it was greater than 100 µM. Besides, the TGI in experiment [7] is greater than 100 µM; in experiment [8], greater than 100 µM; in experiment [9] it was greater than 100 µM; in experiment [10], 0.907 µM.
